A short description of data set [1]: Decarboxylase-like activity: catalysed decarboxylation of oxalacetate. Type of data set: biochemical. As to conditions: for kcat × 10^3 (S^-1): values are kcat × 10^3. The protocol: Each peptide mixture was assayed at 0.2 mM in the presence of 11.4 mM of oxalacetic acid (C4 H4 O5) at pH 7.0 (dilution done in PBS--35 mM phosphate buffer--0.15M NaCl) and 22° C. The kinetics of the decarboxylation reaction were monitored by UV spectroscopy at 280 nm for 45 minutes and the initial rate "v" was calculated directly from the kinetic software included with the spectrophotometer (Hewlett Packard Diode Array Spectrophotometer 8452A).
Based upon the scanning assay studies, a series of 144 individual polypeptides was prepared and assayed as above except that the oxalacetic acid concentration was 11.5 mM. These polypeptides had the sequence of SEQ ID NO:2 with residues at positions Xaa^6 being Glu, Lys or Trp; residues at Xaa^9 being Ala, Asn or Trp; residues at Xaa^13 being Glu, Gln, Val or Trp; and residues at position Xaa^16 being Asp, Met, Gln or Arg (3×3×4×4=144).

The subject of data set [2] is Staphylococcus aureus (ATCC 29213). Type of data set: cell-based. As to conditions: for IC50 (μg/ml) against S. aureus: individual polypeptides. The protocol: The polypeptide libraries of Example 1 were assayed for activity against Staphylococcus aureus [(ATCC 29213); ATCC, 12301 Parklawn Drive, Rockville, Md.]
(§1) To initiate the exponential phase of bacterial growth prior to the assay, a sample of bacteria grown overnight (about 18 hours) at 37° C. in Mueller Hinton broth (MH-Becton Dickinson Microbiology Systems) was reinoculated and incubated at 37° C. A final concentration of […] was used in all assays, vortexed and diluted 10-fold in Yeast Media (YM) broth (Difco Laboratories, Detroit, Mich.), for an approximate final concentration of 10^5 to 5×10^5 CFU/ml. The assays were carried out in 96-well tissue culture plates (Costar, Pleasanton, Calif.), as described in Blondelle et al., Biochem., 31:12688-12694 (1992). In brief, a bacterial suspension in 2× broth was added to the polypeptides mixture sets at concentrations derived from serial two-fold dilutions varying from 1000 μg/ml to 4 μg/ml. The plates were then incubated 21 hours at 37° C. The relative percent growth of the bacteria was determined by the optical density at 620 nm (OD620) using a Titertek Multiskan Plus apparatus (Flow Laboratories, McLean, Va.). The concentration necessary to inhibit 50 percent bacterial growth (IC50) was then calculated using the software program Graphpad (ISI, San Diego, Calif.).

Data set [3] has as its system human erythrocytes (red blood cells; RBCs). In words: Hemolytic activity. Type of data set: cell-based. As to conditions: for HC50 (μg/ml) against Erythrocytes: red cells of human. The protocol:
The hemolytic activities of the polypeptide mixture sets were determined by using human erythrocytes (red blood cells; RBCs). The cells were washed three times with phosphate-buffered saline (PBS/35 mM phosphate buffer--0.15M NaCl, pH 7.0) and resuspended in PBS. The hemolytic activity of the polypeptide sets were determined as described in Blondelle et al., Biochem. Biophys. Acta, 1202:331-336 (1993) using 96 well tissue culture plates. In brief, 100 μl of 0.5 percent RBC solution were added to an equal volume of peptides in PBS. The plates were incubated for one hour at 37° C. and the optical density (OD) of the supernatant was measured at 414 nm. The concentration in peptide necessary to lyse 50 percent RBCs (HD50) was then determined for each peptide using a sigmoidal curve fitting method (Graphpad).

A further data set has as its system E. coli ATCC 25922. In kind it is cell-based. As to conditions: for IC50 (μg/ml) against E. coli: individual polypeptides. As for the experimental part:
as §1
Studies similar to those with S. aureus were carried out using E. coli ATCC 25922. Here, results were not as dramatic, but enhancements in activity of about 2-fold were observed using the set libraries of Example 1.

The record followed here is US5582997A, “Lysine/leucine polypeptides, mixture sets and libraries thereof” (priority 1994, dated 1996).

Where no end group is shown, it is not given here.

One may read the Km as the concentration of substrate that gives half-maximal velocity. Take “YKLLKELLAKLKWLLRKL-NH2 [YKLLKELLAKLKWLLRKL-NH2]”: in data set [1] (Table 4), the “Kcat /Km (S^-1 M^-1)” value is given as 2.66 S^-1 M^-1, the Michaelis-Menten constant (Km) turned out to be 5.66 mM and the “kcat × 10^3 (S^-1)” value stood at 15.08 S^-1.

A word on the IC50: it is the concentration that inhibits the measured activity by half. Low values mean inhibition by little substance, high ones a need for much substance. Substance “YKLLKKLLKKLKKLLKKL-NH2 [SEQ ID NO: 9, YKLLKKLLKKLKKLLKKL-NH2, reference compound]” displayed an IC50 value in data set [2] (ATCC 29213) of 16 µg/mL. The substance also registered an HD50 value in data set [3] of 27 µg/mL. The same substance displayed a concentration for half-maximal inhibition (IC50) in the data set with E. coli ATCC 25922 (ATCC 25922, 18 h) of 9 µg/mL. Moreover, in the data set on E. coli ATCC 25922, the “IC50 (μg/ml) against E. coli” value turned out to be 9 µg/mL. In addition, in data set [1] (Table 3), the “Kcat /Km (S^-1 M^-1)” value is 0.70 S^-1 M^-1 and the “kcat × 10^3 (S^-1)” value is 9.5 S^-1. Besides, the Michaelis constant (Km) in data set [1] (Table 3, 0.2 mM peptide, oxalacetic acid 2.8 to 22.8 mM, pH 7.0, 22° C.) is 13.5 mM.

Turning to “YKLLKLLLPKLKGLLFKL-NH2 [SEQ ID NO: 3, YKLLKLLLPKLKGLLFKL]”, the “IC50 (μg/ml) against S. aureus” value in data set [2] was found to be 1.71 µg/mL. The “HC50 (μg/ml) against Erythrocytes” value in data set [3] is 24.41 µg/mL. In addition, the “IC50 (μg/ml) against E. coli” value with E. coli ATCC 25922 amounted to 2.40 µg/mL.

For “YKLLKLLLPKLKGLLIKL-NH2 [SEQ ID NO: 4, YKLLKLLLPKLKGLLIKL]”, in data set [2], the “IC50 (μg/ml) against S. aureus” value worked out at 2.52 µg/mL. Moreover, the “HC50 (μg/ml) against Erythrocytes” value in data set [3] was determined as 28.41 µg/mL. The “IC50 (μg/ml) against E. coli” value in the data set on E. coli ATCC 25922 came out at 3.61 µg/mL.

With “YKLLKLLLPKLKGLLPKL-NH2 [SEQ ID NO: 5, YKLLKLLLPKLKGLLPKL]”, in data set [2], the “IC50 (μg/ml) against S. aureus” value amounted to 5.14 µg/mL. Besides, in data set [3], the “HC50 (μg/ml) against Erythrocytes” value is more than 125 µg/mL. Moreover, the “IC50 (μg/ml) against E. coli” value in the data set on E. coli ATCC 25922 was 2.65 µg/mL.

Regarding “YKLLKLLLPKLKPLLFKL-NH2 [SEQ ID NO: 6, YKLLKLLLPKLKPLLFKL]”, the “IC50 (μg/ml) against S. aureus” value in data set [2] is 2.11 µg/mL. In data set [3], the “HC50 (μg/ml) against Erythrocytes” value amounted to 54.74 µg/mL. For the same substance, in the data set with E. coli ATCC 25922, the “IC50 (μg/ml) against E. coli” value stood at 1.98 µg/mL.

Consider “YKLLKLLLPKLKPLLIKL-NH2 [SEQ ID NO: 7, YKLLKLLLPKLKPLLIKL]”, for which the “IC50 (μg/ml) against S. aureus” value in data set [2] amounted to 2.81 µg/mL. Moreover, the “HC50 (μg/ml) against Erythrocytes” value in data set [3] amounted to 68.90 µg/mL. The “IC50 (μg/ml) against E. coli” value in the data set with E. coli ATCC 25922 was found to be 1.87 µg/mL.

In the case of “YKLLKLLLPKLKPLLPKL-NH2 [SEQ ID NO: 8, YKLLKLLLPKLKPLLPKL]”, in data set [2], the “IC50 (μg/ml) against S. aureus” value is 22.82 µg/mL. Moreover, in data set [3], the “HC50 (μg/ml) against Erythrocytes” value was more than 125 µg/mL. For the same substance, the “IC50 (μg/ml) against E. coli” value with E. coli ATCC 25922 amounted to 3.14 µg/mL. Also, in data set [1] (Table 4), the “Kcat /Km (S^-1 M^-1)” value came out at 0.53 S^-1 M^-1, the Michaelis-Menten constant (Km) is 8 mM and the “kcat × 10^3 (S^-1)” value is given as 4.22 S^-1.
